Measurements taken from publication PMC6315506 (Viruses, 2018).

Tests used:
Conditions in all cases: 10 µM
HIV-1/H5N1 pseudovirus = experiment: organism not typed; assay type: cell-based, influenza A virus A/Goose/Qinghai/59/05 (H5N1)
HIV-1/LASV pseudovirus = experiment: microbe, parasite or virus in culture; assay type: cell-based
HIV-1/EBOV pseudovirus = tested on: HIV-1/EBOV pseudovirus
A549 cells = tested on: A549 cells

SMILES	Inhibition HIV/H5N1 (HIV-1/H5N1 pseudovirus)	Inhibition HIV/LASV (HIV-1/LASV pseudovirus)	Inhibition HIV/EBOV (HIV-1/EBOV pseudovirus)	Cell Viability (A549 cells)
CN(C)Cc1cccc(-c2cc3cc(Br)ccc3nc2OCc2cccc3ccccc23)c1 [SYL1638]	98.27%	99.18%	99.91%	18.62%
CN1CCN(c2ccc(-c3cc4cc(Br)ccc4nc3OCc3cccc4ccccc34)cc2)CC1 [SYL1669]	96.42%	92.49%	99.94%	82.47%
COc1nc2ccccc2cc1C(Nc1ccccc1N1CCN(C)C1=O)c1ccccc1 (stereo not shown) [SYL1662]	68.52%	89.05%	99.56%	89.06%
COc1nc2ccccc2cc1C(O)(Cc1cccc(F)c1)c1ccccc1 (stereo not shown) [SYL1651]	30.01%	89.23%	99.95%	79.56%
CN1CCC(c2ccccc2)(C(O)(c2ccccc2)c2ccccc2)CC1 [SYL1661]	5.09%	72.11%	99.91%	77.89%
Brc1ccc2nc(OCc3cccc4ccccc34)c(-c3ccc(CN4CCN(Cc5ccccc5)CC4)cc3)cc2c1 [SYL1697]	-5.87%	15.89%	67.57%	90.86%
CN(C)CCC=C(c1ccccc1)c1cc2ccccc2nc1Oc1cccc2ccccc12.Cl [SYL1627]	49.35%	87.33%	99.84%	89.09%
CN(C)Cc1ccc(-c2cc3cc(Br)ccc3nc2OCc2cccc3ccccc23)c(F)c1 [SYL1682]	78.74%	94.69%	99.91%	84.09%
COc1cc(-c2cc3cc(Br)ccc3nc2OCc2cccc3ccccc23)ccc1CN(C)C [SYL1709]	94.56%	81.68%	99.76%	74.44%
Brc1ccc2nc(OCc3cccc4ccccc34)c(-c3ccc(Cn4ccnc4)cc3)cc2c1 [SYL1691]	97.25%	57.43%	92.17%	72.14%
CN1CCC(c2ccccc2)(C(O)(c2ccccc2)c2ccc3ccccc3c2)CC1 (stereo not shown) [SYL1644]	97.63%	92.36%	99.92%	78.35%
CN(C)Cc1ccc(-c2cc3cc(Br)ccc3nc2N2CCN(C)CC2)cc1 [SYL1713]	97.68%	99.40%	99.58%	1.24%
COc1ccc(CC(O)(c2ccccc2CN(C)C)c2cc3cc(OC)ccc3nc2OC)cc1 (stereo not shown) [SYL1663]	88.29%	89.19%	99.90%	89.15%
CN(C)Cc1cccc(-c2cc3cc(Br)ccc3nc2OCCc2cccc3ccccc23)c1 [SYL1664]	50.44%	86.44%	99.90%	84.59%
COc1cc(CN(C)C)ccc1-c1cc2cc(Br)ccc2nc1OCc1cccc2ccccc12 [SYL1716]	98.20%	99.34%	99.70%	1.73%
C[N+](C)(C)Cc1ccc(-c2cc3cc(Br)ccc3nc2OCc2cccc3ccccc23)cc1.[I-] [SYL1685]	65.25%	93.29%	99.90%	103.42%
CN1CCN(Cc2ccc(-c3cc4cc(Br)ccc4nc3OCc3cccc4ccccc34)cc2)CC1 [SYL1670]	91.10%	77.77%	99.92%	82.37%
COc1nc2ccc(Br)cc2cc1C(O)(Cc1cccc(F)c1)c1ccccc1CN(C)C (stereo not shown) [SYL1649]	79.45%	90.46%	99.90%	81.62%
COc1ccccc1COc1nc2ccc(Br)cc2cc1-c1ccc(CN(C)C)cc1 [SYL1705]	59.98%	88.92%	99.76%	86.34%
CN(C)Cc1cccc(-c2cc3cc(Br)ccc3nc2Nc2cccc3ccccc23)c1 [SYL1656]	49.96%	51.43%	79.70%	77.79%
Brc1ccc2nc(Oc3cccc4ccccc34)c(-c3ccccc3)cc2c1 [SYL1653]	64.36%	87.04%	99.85%	82.57%
COc1ccc(COc2nc3ccc(Br)cc3cc2-c2ccc(CN(C)C)cc2)cc1 [SYL1706]	54.58%	87.40%	99.20%	82.99%
CN(C)c1ncc2cc(-c3cc4cc(Br)ccc4nc3OCc3cccc4ccccc34)ccc2n1 [SYL1692]	-2.23%	11.86%	48.65%	87.98%
COc1nc2ccccc2cc1C(c1ccccc1)n1c(=O)n(CCN(C)C)c2ccccc21 (stereo not shown) [SYL1624]	53.54%	85.88%	99.82%	86.63%
CN(C)CCN1CCN(c2ccc(-c3cc4cc(Br)ccc4nc3OCc3cccc4ccccc34)cc2)CC1 [SYL1710]	97.63%	98.64%	99.39%	1.97%
